Drawing on ChEMBL document CHEMBL1134372, “Bisphosphonates inhibit the growth of Trypanosoma brucei, Trypanosoma cruzi, Leishmania donovani, Toxoplasma gondii, and Plasmodium falciparum: a potential route to chemotherapy” (J Med Chem, 2001), this text covers IC50, inhibition and Infected for 21 compounds.

In assay [1] the test system is Trypanosoma brucei. Briefly: Inhibition of Trypanosoma rhodesiense (strain STIB900) was determined using blood stream from trypomastigotes. The class given is functional, organism-based.
Assay [2] relates to Leishmania donovani. Briefly: Inhibition of L. donovani (Amastigotes) strain MHOM/ET/67/L82 maintained in female golden hamsters. The class given is functional, organism-based.
Assay [3] has as its system Trypanosoma cruzi. Nature of the assay: Effect on proliferation of Trypanosoma cruzi Amastigotes in vero cells at a conc of 150 uM was determined. Type of assay: functional.
For assay [4], the system named is Trypanosoma cruzi. Briefly: Inhibition of Trypanosoma cruzi Amastigotes was determined in γ-irradiated L6E9 myoblasts culture and fetal calf serum.
The next assay has as its system Toxoplasma gondii. Nature of the assay: Inhibition of Toxoplasma gondii tachyzoites in human foreskin fibroblast monolayer(DMEM with 10%fetal calf serum). Type of assay: functional, organism-based.
The next assay relates to Plasmodium falciparum. Nature of the assay: Inhibition of Plasmodium falciparum 3D7 in erythrocytes. Type of assay: functional, organism-based.
For assay [5], the system named is Vero. Nature of the assay: Percent infected vero cells was determined. The class given is functional.
Assay [6] relates to Leishmania donovani. Briefly: Inhibition of L. donovani (Amastigotes) strain MHOM/ET/67/L82 maintained in pathogen free spleen from female golden hamsters; toxic. Type of assay: functional, organism-based.
The subject of assay [7] is Vero. Nature of the assay: Percent infected Vero cells was determined. The class given is functional.
The test system of assay [8] is Leishmania donovani. Nature of the assay: Inhibition of L. donovani (Amastigotes) strain MHOM/ET/67/L82 maintained in pathogen free spleen from female golden hamsters. The class given is functional, organism-based.
In assay [9] the test system is Trypanosoma cruzi. Briefly: Inhibition of Trypanosoma cruzi Amastigotes was determined in γ-irradiated L6E9 myoblasts culture and fetal calf serum. This is another data set of the same source.
Assay [10] relates to Trypanosoma cruzi. Nature of the assay: microbe, parasite or virus in culture.
Description: Compound was evaluated for anti-parasitic activity against Trypanosoma cruzi
Assay [11] deals with Trypanosoma brucei. Nature of the assay: Compound was evaluated for anti-parasitic activity against Trypanosoma brucei. Type of assay: functional, organism-based.
The subject of assay [12] is Trypanosoma cruzi. Briefly: Effect on inhibition on proliferation of Trypanosoma cruzi Amastigotes in vero cells at a conc of 150 uM. Type of assay: functional.

In the case of `O=P(O)(O)C(O)(CCc1cccnc1)P(=O)(O)O`, the IC50 with Trypanosoma brucei [1] was 1.7 µM; in the assay on Leishmania donovani [2], over 200 µM; in the assay on Trypanosoma cruzi [4], over 200 µM; in the assay on Toxoplasma gondii (read-out: IC50) it was over 200 µM; in the assay on Plasmodium falciparum, over 200 µM. In the assay with Trypanosoma cruzi [3], this compound had an inhibition at 150 µM of 81%. In the assay on Vero [5], this compound displayed an Infected of 6%.

With `NCCCCC(O)(P(=O)(O)O)P(=O)(O)O`, the half-maximal inhibitory concentration (IC50) with Trypanosoma brucei [1] was over 200 µM; in the assay on Leishmania donovani [2], 129 µM; in the assay with Trypanosoma cruzi [4] it was over 200 µM; in the assay with Toxoplasma gondii (read-out: IC50), over 200 µM; in the assay with Plasmodium falciparum it was over 200 µM.

`CCCCC(O)(P(=O)(O)O)P(=O)(O)O`: the IC50 is 99.8 µM in the assay on Trypanosoma brucei [1], over 200 µM with Leishmania donovani [2], over 200 µM in the assay on Trypanosoma cruzi [4] and 56.7 µM in the assay on Plasmodium falciparum.

Regarding `CCCCCC(O)(P(=O)(O)O)P(=O)(O)O`, the IC50 in the assay with Trypanosoma brucei [1] was 62.4 µM; in the assay with Leishmania donovani [2], over 200 µM; with Trypanosoma cruzi [4], over 200 µM; in the assay on Plasmodium falciparum, 5.1 µM.

For the compound `O=P(O)(O)C(O)(Cc1c[nH]cn1)P(=O)(O)O`, the IC50 was 8.6 µM with Trypanosoma brucei [1], “Toxic” in the assay with Leishmania donovani [6], 35 µM in the assay on Trypanosoma cruzi [4] and over 200 µM with Plasmodium falciparum.

On to `CCOP(=O)(OCC)C(Nc1ncccc1C)P(=O)(OCC)OCC`, for which the half-maximal inhibitory concentration (IC50) with Trypanosoma brucei [1] was 27.9 µM; with Leishmania donovani [2] it was 82.1 µM; in the assay on Trypanosoma cruzi [4], over 200 µM; in the assay with Plasmodium falciparum, over 200 µM. Also, the Infected in the assay on Vero [7] worked out at 9%. Testing at 150 µM with Trypanosoma cruzi [3] gave an inhibition of 69%.

As to `Nc1ccc(CC(O)(P(=O)(O)O)P(=O)(O)O)cc1`, the 50% inhibitory concentration (IC50) in the assay with Trypanosoma brucei [1] is 40 µM; with Leishmania donovani [2] it was over 200 µM; in the assay on Trypanosoma cruzi [4], over 200 µM; with Toxoplasma gondii (read-out: IC50), 68.2 µM; with Plasmodium falciparum, over 200 µM.

Take `O=P(O)(O)C(O)(Cc1ccccn1)P(=O)(O)O`: the IC50 in the assay with Trypanosoma brucei [1] was 0.22 µM; in the assay on Leishmania donovani [6] it was “Toxic”; in the assay with Trypanosoma cruzi [4] it was 105 µM; in the assay with Toxoplasma gondii (read-out: IC50), 9.1 µM; in the assay on Plasmodium falciparum it was over 200 µM.

Take `CCCC(O)(P(=O)(O)O)P(=O)(O)O`: the IC50 with Trypanosoma brucei [1] was 92 µM; in the assay on Leishmania donovani [2] it was over 200 µM; in the assay on Trypanosoma cruzi [4], over 200 µM; in the assay on Toxoplasma gondii it was 9.1 µM; in the assay with Plasmodium falciparum it was 130 µM.

In the case of `Cc1cccnc1NC(P(=O)(O)O)P(=O)(O)O`, the IC50 in the assay on Trypanosoma brucei [1] was 0.7 µM; with Leishmania donovani [6], “Toxic”; in the assay on Trypanosoma cruzi [4], 147 µM; in the assay with Plasmodium falciparum, over 200 µM.

As for `CC(N)CC(O)(P(=O)(O)O)P(=O)(O)O` (stereo unspecified), the IC50 with Trypanosoma brucei [1] was 7.8 µM; in the assay on Trypanosoma cruzi [4], over 200 µM; in the assay on Plasmodium falciparum, over 200 µM; with Leishmania donovani [8], over 200 µM.

Turning to `O=P(O)(O)C(O)(CSc1ccncc1)P(=O)(O)O`, the IC50 was 19.8 µM in the assay on Trypanosoma brucei [1], over 200 µM in the assay with Leishmania donovani [2], over 200 µM with Trypanosoma cruzi [4] and 158 µM in the assay with Plasmodium falciparum. In the assay with Vero [7], the Infected amounted to 33%. In the assay on Trypanosoma cruzi [3], the inhibition at 150 µM worked out at 0%.

`O=P(O)(O)C(O)(Cc1ccncc1)P(=O)(O)O`: the IC50 in the assay on Trypanosoma brucei [1], in the assay with Leishmania donovani [2], with Toxoplasma gondii (read-out: IC50), in the assay with Trypanosoma cruzi [9] and with Plasmodium falciparum was over 200 µM in each case.

For `O=P(O)(O)C(O)(Cc1ccccc1)P(=O)(O)O`, the IC50 in the assay on Trypanosoma brucei [1] is 21.3 µM; in the assay with Leishmania donovani [2], over 200 µM; with Trypanosoma cruzi [4], over 200 µM; in the assay with Plasmodium falciparum, 7.7 µM. Also, the Infected in the assay on Vero [7] is on record as 30%. In the assay on Trypanosoma cruzi [3], 150 µM produced 6% inhibition.

For `NCCCC(O)(P(=O)(O)O)P(=O)(O)O` [ALENDRONIC ACID], the IC50 in the assay with Trypanosoma brucei [1] was over 200 µM; in the assay on Leishmania donovani [2] it was 82.5 µM; with Trypanosoma cruzi [4], 25 µM; in the assay on Plasmodium falciparum it was over 200 µM.

For the compound `O=C(Cn1ccnc1[N+](=O)[O-])NCc1ccccc1` [BENZNIDAZOLE], in the assay with Trypanosoma cruzi [10], the IC50 was found to be 3.5 µM.

Turning to `NCCCCCC(O)(P(=O)(O)O)P(=O)(O)O` [NERIDRONIC ACID], the IC50 with Trypanosoma brucei [1] was 31.7 µM; in the assay on Leishmania donovani [2] it was over 200 µM; in the assay with Trypanosoma cruzi [4], over 200 µM; in the assay with Plasmodium falciparum, over 200 µM.

Regarding `CN(C)CCC(O)(P(=O)(O)O)P(=O)(O)O` [OLPADRONIC ACID], the IC50 is 5.4 µM in the assay on Trypanosoma brucei [1], over 200 µM in the assay with Leishmania donovani [2], over 200 µM with Trypanosoma cruzi [4] and over 200 µM with Plasmodium falciparum.

As for `NCCC(O)(P(=O)(O)O)P(=O)(O)O` [PAMIDRONIC ACID], the IC50 in the assay on Trypanosoma brucei [1] was 177 µM; in the assay with Leishmania donovani [6] it was “Toxic”; in the assay on Trypanosoma cruzi [4], 60 µM; in the assay on Toxoplasma gondii (read-out: IC50), 35.6 µM; in the assay with Plasmodium falciparum, over 200 µM.

With `N=C(N)c1ccc(OCCCCCOc2ccc(C(=N)N)cc2)cc1` [PENTAMIDINE], the IC50 in the assay on Trypanosoma brucei [11] stood at 0.035 µM.

On to `O=P(O)(O)C(O)(Cc1cccnc1)P(=O)(O)O` [RISEDRONIC ACID], for which the IC50 in the assay with Trypanosoma brucei [1] amounted to 8.6 µM; in the assay with Leishmania donovani [2], 2.3 µM; in the assay with Trypanosoma cruzi [4], 123 µM; with Toxoplasma gondii (read-out: IC50), 0.49 µM; with Plasmodium falciparum it was 123 µM. The compound further displayed an inhibition at 150 µM in the assay on Trypanosoma cruzi [12] of 100%. In the assay on Vero [5], this compound returned an Infected of 0%.
